Experimental data taken from US20050261342A1, “Metabolites of (+)-(2S,3S)-3(2-methoxy-5- trifluoromethoxybenzylamino)-2-phenyl-piperidine” (Pfizer Inc., priority 2004, published 2005).

Experiment: Profiling and quantitative assessment of radiolabelled metabolites in human subjects after a single oral dose of [14C]-(+)-(2S, 3S)-3-(2-methoxy-5-trifluoromethoxybenzylamino)-2-phenyl-piperidine
Type: in vivo
Details: single 30 mg (free base) oral dose of [14C] parent compound, HPLC radioprofiling of pooled serum (1-24 h)
Protocol: Six healthy male human subjects (4 extensive metabolizers (EM) of CYP2D6 and 2 poor metabolizers (PM) of CYP2D6) were administered in a single 30 mg (free base) oral dose of (+)-(2S, 3S)-3-(2-methoxy-5-trifluoromethoxybenzylamino)-2-phenyl-piperidine containing 100 *Ci of [14C]-(+)-(2S, 3S)-3-(2-methoxy-5-trifluoromethoxybenzylamino)-2-phenyl-piperidine (Lot # 49800-59-3, specific activity 1.22 mCi/mmol, radio purity of >99%). Blood samples were collected into red-top tubes (no preservatives or anticoagulant or serum separator) at the following time points: 1, 4, 8, 12, and 24 hours post dose. The blood samples were centrifuged at 4° C. and serum was transferred to clean tubes.
a) Serum samples were pooled by human subject separately (3 ml from each sampling time, total of 15 ml) and aliquots of 1.5 mL from each pool were extracted with 5 mL of acetonitrile. The mixtures were vortex mixed for 5 minutes and centrifuged at 3500 rpm for 5 minutes to remove the precipitated proteins. Supernatants were combined and a small aliquot of supernatant was counted. Approximately 96% (average of all subjects) of the radioactivity was recovered in the supernatant. The supernatants were evaporated under N^2 in a turbovap at room temperature. […]
Measuring the radioactivity in the individual peaks separated on the HPLC column using a -RAM detector allowed the quantification of each metabolite. […]

O=C(O)c1cc(OC(F)(F)F)ccc1O [5-trifluoromethoxy salicylic acid, 2-Hydroxy-5-trifluoromethoxy-benzoic acid]
accounted for % of the total radioactivity (EM subjects (extensive metabolizers of CYP2D6)): approximately 56% | accounted for % of the total radioactivity (PM subjects (poor metabolizers of CYP2D6)): ~29%
